Ends that are not written are not given here.
Tested on: peripheral blood mononuclear cells (PBMC)
Test: MTT cytotoxicity assay
Format: cell-based
Settings: stimulated PBMC, incubated for 3 days, high concentrations, listed as monomeric PAP85-120
Protocol: To determine possible cytotoxic effects of PAP85-120 fibrils, serial dilutions of fibrils were added to stimulated peripheral blood mononuclear cells (PBMC) and incubated for 3 days (see example 8). Thereafter 10 µl of a 5 mg/ml MTT (Sigma; # M2128) solution was added and cells were incubated for 4 h at 37°C. In living cells mitochondrial dehydrogenases […] the yellow MTT salt to blue formazan crystals (Schiff et al.; 1985). After dissolving the crystals in 1:1 Ethanol/DMSO, samples containing living cells appear blue whereas samples from dead cells are clear. Optical density (OD) was measured at 560/650 nm using a photometer (Molecular Devices).
Fig. 5: PAP85 is non cytotoxic. Peripheral blood mononuclear cells (PBMC) were stimulated with phytohemagglutinine (2 µg/ml) and Interleukin 2 (10 µg/ml) for three days. Thereafter cells were sown out in 96 well dishes containing the indicated concentrations of freshly dissolved monomeric PAP85 or fibrillar PAP85 and incubated for 3 days. Cytotoxicity was determined by detecting dehydrogenase activity in living cells using the MTT assay. Values represent average values +/- SD derived from triplicates.

Q: For “IRKRYRKFLNESYKHEQVYIRSTDVDRTLMSAMTNL [freshly dissolved PAP85-120]”, which “cell viability / cytotoxic effects” value is on record?
A: The value was “do not exert cytotoxic effects”.

— EP2071024A1, “Peptides of human prostatic acid phosphatase enhancing viral infectivity” (Pharis Biotec GmbH, priority 2007, dated 2009)
